By IC90 is commonly meant the concentration at which the effect reaches the 90% level. Usually IC50 stands for the point on the concentration scale where inhibition reaches its midpoint. Low readings indicate greater potency, high ones weaker potency. For orientation: EC50 means the concentration giving half of the maximal effect. Higher therefore signals a less potent agent.

Test [1] relates to HIV-1KP-5pc. Briefly: TZM-bl single-round infection assay, HIV-1KP-5pc. Particulars: Human immunodeficiency virus 1, TZM-bl. The class given is cell-based. On the procedure: (§1) MAGI-CCR5 cells[18] were maintained in DMEM supplemented with 10% fetal calf serum (FCS: Gemini Bio-Products, West Sacramento, CA), 200 μg/ml G418, 100 μg/ml hygromycin B, and 100 μg/ml zeomycin. The Chinese hamster ovary (CHO) cells expressing CCR5[19] were maintained in Ham’s F-12 medium (GIBCO-BRL, Rockville, MD) supplemented with 10% FCS, 50 U/ml penicillin, and 50 μg/ml streptomycin in the presence of 5 μg/ml blasticidin S hydrochloride. TZM-bl cells were obtained from the NIH AIDS Reagent Program, and were cultured in DMEM with 10% FCS. Peripheral blood mononuclear cells (PBMCs) were isolated from buffy coats of HIV-1 seronegative individuals, and were activated with 10 μg/ml phytohemagglutinin (PHA) prior to use[16]. A laboratory wild-type R5-HIV-1 strain (HIV-1Ba-L)[37] was employed for drug susceptibility assays. AD101 (experimental CCR5 inhibitor) and VVC-resistant HIV clones[7],[8] were provided by Dr. John P. Moore of Cornell University for this study. The clones were propagated with activated PBMCs, and were used for the assays. A clinical HIV-1 strain, HIV-1KP-5pc, and an MVC-resistant isolate, HIV-1KP-5mvcR, were prepared and used for antiviral assays, as previously described[10],[38]. The following reagents (plasmids) for T/F HIV-1 viruses[22],[24] were obtained through the NIH AIDS Reagent Program, Division of AIDS, NIAID, NIH: pCH040.c/2625 (cat# 11740), pCH106.c/2633 (cat# 11743), pTHRO.c/2626 (cat# 11745), and pCH058.c/2960 (cat# 11856), from Dr. John Kappes and Dr. Christina Ochsenbauer.
(§2) Antiviral assays using PHA-PBMCs (p24 assay) were conducted as previously reported[16],[38]. In brief, PHA-PBMCs (1 × 10^6/ml) were exposed to 50 TCID50 of HIV-1Ba-L or drug-resistant HIV-1 infectious clones in the presence or absence of various concentrations of drugs; 10-fold serial dilutions were performed in 96-well microculture plates. The amount of p24 antigens produced by the cells was determined on day 7 in the culture via a commercially available ELISA kit (PerkinElmer). The p24 production level in drug-free control cell cultures was used as the reference. […] Antiviral assays using MAGI-CCR5 cells (MAGI assay) were conducted as previously reported[16],[39]. Single-round virus infection assays using TZM-bl cells infected with R5-HIV-1s (HIV-1YU2, HIV-1KP-5pc, and HIV-1KP-5mvcR)[10] were also conducted as previously described.

Test [2] relates to pCH040.c/2625. In words: MAGI assay, T/F HIV-1 clone pCH040.c/2625. Particulars: Human immunodeficiency virus 1, MAGI. It is filed as cell-based.
Description: (§3) We also examined the activity of GRL-compounds against Transmitter/founder (T/F) HIV-1 viruses. T/F viruses are involved in the initial infection. It is considered that T/F viruses virtually always use CCR5 rather than CXCR4 and infect T cells but not macrophages because […] of CD4 is needed to mediate virus entry for the initial transmission[20]–[24]. […] We obtained four HIV-1 T/F infectious clones. We determined the antiviral activity of GRL-117C, GRL-10007C and GRL-10018C on these HIV-1 clones using MAGI assay.
as §1, with “A clinical HIV-1 strain, HIV-1KP-5pc, and an MVC-resistant isolate, HIV-1KP-5mvcR, were prepared and used for antiviral assays, as previously described[10],[38].” left out
as §2

For test [3], the target named is T1, CCR5 (Homo sapiens, UniProt P51681).
T1 construct: expressed in transfected cells; host or cells: Chinese hamster ovary (CHO) cells expressing CCR5
T1 sequence (P51681 whole entry): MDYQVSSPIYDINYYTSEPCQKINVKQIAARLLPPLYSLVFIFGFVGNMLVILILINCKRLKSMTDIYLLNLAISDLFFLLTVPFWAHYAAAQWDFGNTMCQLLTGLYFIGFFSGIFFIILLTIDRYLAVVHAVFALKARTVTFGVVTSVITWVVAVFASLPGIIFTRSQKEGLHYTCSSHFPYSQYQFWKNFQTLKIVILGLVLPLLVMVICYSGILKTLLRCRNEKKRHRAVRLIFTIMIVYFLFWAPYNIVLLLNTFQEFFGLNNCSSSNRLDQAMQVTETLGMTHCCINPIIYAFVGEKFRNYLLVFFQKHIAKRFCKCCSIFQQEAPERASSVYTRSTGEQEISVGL
Briefly: Inhibition of 125I-MIP-1α binding to CCR5 (CCR5+ CHO cells). On the procedure:
In order to determine whether GRL derivatives block the binding of CC-chemokines to CCR5, we conducted a CC-chemokine binding inhibition assay using ^125I-labeled CC-chemokines (^125I-RANTES, ^125I-MIP-1α, and ^125I-MIP-1β) and CCR5 expressing cells.
CCR5^+ CHO cells were incubated with (A) ^125I-MIP-1α, (B) ^125I-MIP-1β, and (C) ^125I-RANTES (200 ng/ml) in the presence or absence of varying concentrations of CCR5 inhibitors. Data are shown as means ± s.d. of three independent experiments.
The inhibition of the binding of ^125I-labeled CC-chemokines ([^125I] RANTES, [^125I] MIP-1α, or [^125I] MIP-1β) to CCR5 by various CCR5 inhibitors was measured as previously described. Calcium flux inhibition assays were also performed with CCR5 inhibitors, and were carried out with the Fluo-4 Direct^TM calcium reagent (Invitrogen); assays were conducted as previously described with minor modifications. In brief, CHO-CCR5 cells (5 × 10^5 cells) were exposed to Fluo-4 Direct^TM calcium reagent for 60 min at 37 °C in RPMI containing 5% FCS. Cells were then incubated with the test compound for 30 min at varying concentrations. Subsequently, cells were exposed to either MIP-1α, MIP-1β, or RANTES at 200 ng/ml. Relative increases in cytosolic Ca^2+ levels after chemokine exposure were determined with flow cytometry (FACSCalibur, BD Biosciences), and IC50 values of cytosolic Ca^2+ mobilization (Ca^2+ flux) were compared with the Ca^2+ flux level in drug-free control samples.

Test [4] relates to pTHRO.c/2626. In words: MAGI assay, T/F HIV-1 clone pTHRO.c/2626. The class given is cell-based. Particulars: Human immunodeficiency virus 1, MAGI.
Description: as §3
as §1, with “A clinical HIV-1 strain, HIV-1KP-5pc, and an MVC-resistant isolate, HIV-1KP-5mvcR, were prepared and used for antiviral assays, as previously described[10],[38].” left out
as §2

Test [5] concerns pCH0.6.c/2633. Briefly: MAGI assay, T/F HIV-1 clone pCH0.6.c/2633. It is filed as cell-based. The following applies: Human immunodeficiency virus 1, MAGI.
Description: as §3
as §1, with “A clinical HIV-1 strain, HIV-1KP-5pc, and an MVC-resistant isolate, HIV-1KP-5mvcR, were prepared and used for antiviral assays, as previously described[10],[38].” left out
as §2

Compound `C=CCN(C(=O)OCc1ccc([N+](=O)[O-])cc1)C1CC2CCC(C1)N2CCC(C)(CN(C)S(=O)(=O)c1ccccc1)c1ccccc1` (stereo not drawn) [GRL-117C] showed an IC90 in test [1] of 767 nM. The half-inhibitory concentration (IC50) turned out to be 160 ± 30 nM in test [1] (KP-5pc, drug-sensitive clinical strain, TZM-bl assay, mean ± SD); 2 ± 0.6 nM in test [2]; 2.1 ± 0.2 nM in test [4]; 1.9 ± 0.3 nM in test [5]. For the same compound, it took 4.3 nM to reach a half-maximal effect in test [3] (EC50).

(Values after article PMC6423129, “Activity and structural analysis of GRL-117C: a novel small molecule CCR5 inhibitor active against R5-tropic HIV-1s” (Scientific Reports, 2019).)
